Measurements taken from BindingDB's records for patent US12303509 (Pfizer, 2025).

Target: Serine/threonine-protein kinase B-raf [V600E] (Homo sapiens, UniProt P15056, V600E)
Assay: BRAF V600E Enzyme Assay
Protocol: A competitive displacement assay was configured for B-Raf that monitors the amount of a fluorescently-tagged “tracer” bound to B-Raf via TR-FRET from an anti-tag Eu-labeled antibody also bound to B-Raf. For full-length FLAG-tagged B-Raf(V600E), the assay mixtures consisted of 25 mM K+HEPES, pH 7.4, 10 mM MgCl2, 0.01% Triton X-100, 1 mM DTT, 2% DMSO (from compound), 50 nM Tracer 1710 (ThermoFisher, PR9176A), 0.5 nM Eu anti-FLAG (M2)-cryptate Ab (Cisbio, 61FG2KLB) and 5 nM full-length, N-terminally FLAG-tagged B-Raf(V600E) (Origene Technologies, TP700031. Compounds were typically diluted in DMSO across an 11-point dosing range created using a 3-fold serial dilution protocol at a top dose of 10 μM. The assay was run in 384-well, polystyrene, low-volume, non-treated, white microtiter plates (Costar 4512) in a final volume of 12 μL. Low control wells included 1 μM of a potent B-Raf inhibitor as a control. The assays were incubated at ambient temperature (typically 22° C.) for 60 min and then read on a PerkinElmer EnVision microplate reader using standard TRF settings (λEx=320 nm, λEm=615 & 665 nm).

Serine/threonine-protein kinase B-raf [V600E], sequence (P15056 2-766 V600E limits assumed): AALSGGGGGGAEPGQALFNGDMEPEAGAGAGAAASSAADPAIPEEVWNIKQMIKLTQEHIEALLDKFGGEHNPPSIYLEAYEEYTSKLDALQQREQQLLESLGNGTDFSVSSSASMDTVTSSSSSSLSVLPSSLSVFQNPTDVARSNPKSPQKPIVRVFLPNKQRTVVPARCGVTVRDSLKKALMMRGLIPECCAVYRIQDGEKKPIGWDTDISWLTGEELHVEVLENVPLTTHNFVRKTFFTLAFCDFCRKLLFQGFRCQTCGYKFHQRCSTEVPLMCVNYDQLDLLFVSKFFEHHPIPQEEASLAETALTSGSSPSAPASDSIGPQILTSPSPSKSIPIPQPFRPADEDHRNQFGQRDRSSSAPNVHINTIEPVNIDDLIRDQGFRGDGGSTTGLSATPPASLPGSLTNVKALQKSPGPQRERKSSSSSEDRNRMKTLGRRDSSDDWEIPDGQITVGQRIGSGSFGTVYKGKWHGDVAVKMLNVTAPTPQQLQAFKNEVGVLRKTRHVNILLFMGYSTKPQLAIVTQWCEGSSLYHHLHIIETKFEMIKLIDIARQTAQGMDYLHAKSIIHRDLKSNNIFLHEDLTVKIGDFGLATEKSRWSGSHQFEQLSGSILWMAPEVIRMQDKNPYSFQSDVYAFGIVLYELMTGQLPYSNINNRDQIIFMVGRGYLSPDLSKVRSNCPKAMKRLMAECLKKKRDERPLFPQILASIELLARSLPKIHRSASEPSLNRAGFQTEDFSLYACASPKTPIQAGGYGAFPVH

Row | IC50 [nM] | Compound
1 | 29 | Cc1c(Nc2c(F)ccc(NS(=O)(=O)N3CC4(CCC4)C3)c2Cl)ccc2ncn(C)c(=O)c12 [US12303509, Example 157]
2 | 8 | Cn1cnc2ccc(Nc3c(F)ccc(NS(=O)(=O)N4CC(OC(F)F)C4)c3Cl)c(Cl)c2c1=O [US12303509, Example 143]
3 | 7 | Cc1c(Nc2c(F)ccc(NS(=O)(=O)N3CC(C)(F)C3)c2Cl)ccc2ncn(C)c(=O)c12 [US12303509, Example 155]
